According to patent publication US20250042911A1, “NOVEL BENZOPYRAN DERIVATIVE AND USE THEREOF” (SPARK BIOPHARMA, INC, priority 2021, published 2025):
pEC50: −log10 of the molar value. Structures can show the parent of a compound that is named as a salt.

System: human M2 macrophages
Test: Inhibition of human M2 macrophage activity, hCCL22 in culture supernatant by ELISA
Format: cell-based
Details: for inhibition at 10 µM: Macrophage, hCCL22 inhibitory activity at 10 μM, 72 hours; for pEC50: hCCL22 secretion, THP-1 derived M2-like macrophages, compound present during 72 hours of differentiation
Experimental: To obtain human M2 macrophages, human monocytes (THP-1 monocyte, CD4 expression) were stabilized in a 96-well plate for 24 hours and then incubated in culture media containing 100 ng/mL phorbal 12-myristate-13-acetate (PMA; Sigma, P8139) for 24 hours to differentiate into M0 macrophages (macrophage-like phenotype). It was confirmed that differentiated M0 macrophages had reduced CD4 expression and expressed CD11b. M0 macrophages in the plate well were washed once with culture media and incubated in culture media containing 25 ng/mL hIL-4 (Peprotech, 200-04-50) and 25 ng/mL hIL-13 (Peprotech, 200-13-50) for 72 hours to differentiate into M2-like macrophages. Test compounds were diluted by concentration in M2 differentiation media and treated simultaneously during a differentiation period of 72 hours. The inhibitory effect of the test compounds on M2 macrophages was determined by measuring hCCL22 in the medium culture supernatant cultured for 72 hours using an ELISA assay (R&D system, DMD00). The results of the activity measurements are represented in Table 3 (EC50), Table 4 ([…] inhibitory activity at 5 μM) and Table 5 (hCCL22 inhibitory activity at 10 μM).

Row | SMILES | inhibition at 10 µM | pEC50
1 | CNc1ccc2c(c1)OC(C)(C)C1=CCn3c(=O)n(-c4ccc(C(C)=O)cc4)c(=O)n3C12 (stereo not shown) [Example 32, 2-(4-acetylphenyl)-7,7-dimethyl-10-(methylamino)-5,12b-dihydro-1H,7H-chromeno[4,3-c][1,2,4]triazolo[1,2-a]pyridazine-1,3(2H)-dione] | 84.4% | 5.21
2 | CCN(CC)c1ccc2c(c1)OC(C)(C)C1=CCn3c(=O)n(-c4ccc(C(C)=O)cc4)c(=O)n3C12 (stereo not shown) [Example 33, 2-(4-acetylphenyl)-10-(diethylamino)-7,7-dimethyl-5,12b-dihydro-1H,7H-chromeno[4,3-c][1,2,4]triazolo[1,2-a]pyridazine-1,3(2H)-dione] | 96.5% | 5.24
3 | CC(=O)c1ccc(-n2c(=O)n3n(c2=O)C2C(=CC3)C(C)(C)Oc3cc(N4CCCC4)ccc32)cc1 (stereo not shown) [Example 34, 2-(4-acetylphenyl)-7,7-dimethyl-10-(pyrrolidin-1-yl)-5,12b-dihydro-1H,7H-chromeno[4,3-c][1,2,4]triazolo[1,2-a]pyridazine-1,3(2H)-dione] | 73.7% | 5.11
4 | CC1(C)Oc2cc(NC3COC3)ccc2C2C1=CCn1c(=O)n(-c3ccc(F)cc3)c(=O)n12 (stereo not shown) [Example 35, 2-(4-fluorophenyl)-7,7-dimethyl-10-(oxetan-3-ylamino)-5,12b-dihydro-1H,7H-chromeno[4,3-c][1,2,4]triazolo[1,2-a]pyridazine-1,3(2H)-dione] | 96.7% | 5.32
5 | CNc1c(Cl)cc2c(c1Cl)OC(C)(C)C1=CCn3c(=O)n(-c4ccc(C(C)=O)cc4)c(=O)n3C12 (stereo not shown) [Example 36, 2-(4-acetylphenyl)-9,11-dichloro-7,7-dimethyl-10-(methylamino)-5,12b-dihydro-1H,7H-chromeno[4,3-c][1,2,4]triazolo[1,2-a]pyridazine-1,3(2H)-dione] |  | 4.97
6 | CC(=O)c1ccc(-n2c(=O)n3n(c2=O)C2C(=CC3)C(C)(C)Oc3c2cc(Cl)c(NC(C)C)c3Cl)cc1 (stereo not shown) [Example 37, 2-(4-acetylphenyl)-9,11-dichloro-10-(isopropylamino)-7,7-dimethyl-5,12b-dihydro-1H,7H-chromeno[4,3-c][1,2,4]triazolo[1,2-a]pyridazine-1,3(2H)-dione] |  | 4.83
7 | CC(=O)c1ccc(-n2c(=O)n3n(c2=O)C2C(=CC3)C(C)(C)Oc3cc(-c4cc(C)nn4C)ccc32)cc1 (stereo not shown) [Example 38, 2-(4-acetylphenyl)-10-(1,3-dimethyl-1H-pyrazol-5-yl)-7,7-dimethyl-5,12b-dihydro-1H,7H-chromeno[4,3-c][1,2,4]triazolo[1,2-a]pyridazine-1,3(2H)-dione] |  | 4.50
8 | CC(=O)c1ccc(-n2c(=O)n3n(c2=O)C2C(=CC3)C(C)(C)Oc3cc(-c4nc(C)sc4C)ccc32)cc1 (stereo not shown) [Example 39, 2-(4-acetylphenyl)-10-(2,5-dimethylthiazol-4-yl)-7,7-dimethyl-5,12b-dihydro-1H,7H-chromeno[4,3-c][1,2,4]triazolo[1,2-a]pyridazine-1,3(2H)-dione] |  | 4.14
9 | CCn1nc(C)c(-c2ccc3c(c2)OC(C)(C)C2=CCn4c(=O)n(-c5ccc(C(C)=O)cc5)c(=O)n4C23)c1C (stereo not shown) [Example 40, 2-(4-acetylphenyl)-10-(1-ethyl-3,5-dimethyl-1H-pyrazol-4-yl)-7,7-dimethyl-5,12b-dihydro-1H,7H-chromeno[4,3-c][1,2,4]triazolo[1,2-a]pyridazine-1,3(2H)-dione] |  | 4.27
10 | CC(=O)c1ccc(-n2c(=O)n3n(c2=O)C2C(=CC3)C(C)(C)Oc3cc(-c4cccnc4)ccc32)cc1 (stereo not shown) [Example 42, 2-(4-acetylphenyl)-7,7-dimethyl-10-(pyridin-3-yl)-5,12b-dihydro-1H,7H-chromeno[4,3-c][1,2,4]triazolo[1,2-a]pyridazine-1,3(2H)-dione] |  | 4.51
11 | CC(=O)c1ccc(-n2c(=O)n3n(c2=O)C2C(=CC3)C(C)(C)Oc3cc(-c4ccncc4)ccc32)cc1 (stereo not shown) [Example 43, 2-(4-acetylphenyl)-7,7-dimethyl-10-(pyridin-4-yl)-5,12b-dihydro-1H,7H-chromeno[4,3-c][1,2,4]triazolo[1,2-a]pyridazine-1,3(2H)-dione] |  | 4.72
12 | CC(=O)c1ccc(-n2c(=O)n3n(c2=O)C2C(=CC3)C(C)(C)Oc3cc(N(C)C(C)C)ccc32)cc1 (stereo not shown) [Example 45, 2-(4-acetylphenyl)-10-(isopropyl(methyl)amino)-7,7-dimethyl-5,12b-dihydro-1H,7H-chromeno[4,3-c][1,2,4]triazolo[1,2-a]pyridazine-1,3(2H)-dione] |  | 5.04
13 | CC(=O)c1ccc(-n2c(=O)n3n(c2=O)C2C(=CC3)C(C)(C)Oc3cc(N(C(C)C)C(C)C)ccc32)cc1 (stereo not shown) [Example 47, 2-(4-acetylphenyl)-10-(diisopropylamino)-7,7-dimethyl-5,12b-dihydro-1H,7H-chromeno[4,3-c][1,2,4]triazolo[1,2-a]pyridazine-1,3(2H)-dione] |  | 5.09
14 | CN1CCN(c2ccc3c(c2)OC(C)(C)C2=CCn4c(=O)n(-c5ccc(C(C)(C)C)cc5)c(=O)n4C23)CC1 (stereo not shown) [Example 48, 2-(4-(tert-butyl)phenyl)-7,7-dimethyl-10-(4-methylpiperazin-1-yl)-5,12b-dihydro-1H,7H-chromeno[4,3-c][1,2,4]triazolo[1,2-a]pyridazine-1,3(2H)-dione] |  | 5.01
15 | CN1CCN(c2ccc3c(c2)OC(C)(C)C2=CCn4c(=O)n(-c5ccc(C(F)(F)F)cc5)c(=O)n4C23)CC1 (stereo not shown) [Example 49, 7,7-dimethyl-10-(4-methylpyrerazin-1-yl)-2-(4-(trifluoromethyl)phenyl)-5,12b-dihydro-1H,7H-chromeno[4,3-c][1,2,4]triazolo[1,2-a]pyridazine-1,3(2H)-dione] |  | 4.92
16 | CN1CCN(c2ccc3c(c2)OC(C)(C)C2=CCn4c(=O)n(-c5ccc(F)cc5)c(=O)n4C23)CC1 (stereo not shown) [Example 50, 2-(4-fluorophenyl)-7,7-dimethyl-10-(4-methylpiperazin-1-yl)-5,12b-dihydro-1H,7H-chromeno[4,3-c][1,2,4]triazolo[1,2-a]pyridazine-1,3(2H)-dione] |  | 4.59
17 | CC(=O)c1ccc(-n2c(=O)n3n(c2=O)C2C(=CC3)C(C)(C)Oc3cc(N4CCN(C)CC4)ccc32)cc1 (stereo not shown) [Example 51, 2-(4-acetylphenyl)-7,7-dimethyl-10-(4-methylpiperazin-1-yl)-5,12b-dihydro-1H,7H-chromeno[4,3-c][1,2,4]triazolo[1,2-a]pyridazine-1,3(2H)-dione] |  | 4.47
18 | CC(=O)c1ccc(-n2c(=O)n3n(c2=O)C2C(=CC3)C(C)(C)Oc3cc(N4CCN(S(C)(=O)=O)CC4)ccc32)cc1 (stereo not shown) [Example 52, 2-(4-acetylphenyl)-7,7-dimethyl-10-(4-(methylsulfonyl)piperazin-1-yl)-5,12b-dihydro-1H,7H-chromeno[4,3-c][1,2,4]triazolo[1,2-a]pyridazine-1,3(2H)-dione] |  | 4.58
19 | CC1(C)Oc2cc(O)ccc2C2C1=CCn1c(=O)n(-c3ccc(C(=O)N4CCOCC4)cc3)c(=O)n12 (stereo not shown) [Example 53, 10-hydroxy-7,7-dimethyl-2-(4-(morpholine-4-carbonyl)phenyl)-5,12b-dihydro-1H,7H-chromeno[4,3-c][1,2,4]triazolo[1,2-a]pyridazine-1,3(2H)-dione] |  | 5.35
20 | CC(C)(C)OC(=O)N1CCN(C(=O)c2ccc(-n3c(=O)n4n(c3=O)C3C(=CC4)C(C)(C)Oc4cc(O)ccc43)cc2)CC1 (stereo not shown) [Example 54, tert-butyl 4-(4-(10-hydroxy-7,7-dimethyl-1,3-dioxo-5,12b-dihydro-1H,7H-chromeno[4,3-c][1,2,4]triazolo[1,2-a]pyridazin-2(3H)-yl)benzoyl)piperazine-1-carboxylate] |  | 5.82
21 | CC(=O)c1ccc(-n2c(=O)n3n(c2=O)C2C(=CC3)C(C)(C)Oc3cc(OC(=O)C(C)(C)C)ccc32)cc1 (stereo not shown) [Example 58, 2-(4-acetylphenyl)-7,7-dimethyl-1,3-dioxo-2,3,5,12b-tetrahydro-1H,7H-chromeno[4,3-c][1,2,4]triazolo[1,2-a]pyridazin-10-yl pivalate] |  | 4.23
22 | CC(=O)c1ccc(-n2c(=O)n3n(c2=O)C2C(=CC3)C(C)(C)Oc3cc(OC(=O)N4CCNCC4)ccc32)cc1 (stereo not shown) [Example 67, 2-(4-acetylphenyl)-7,7-dimethyl-1,3-dioxo-2,3,5,12b-tetrahydro-1H,7H-chromeno[4,3-c][1,2,4]triazolo[1,2-a]pyridazin-10-yl piperazine-1-carboxylate hydrochloride] |  | 4.76
23 | CC(=O)c1ccc(-n2c(=O)n3n(c2=O)C2C(=CC3)C(C)(C)Oc3cc(OC(=O)N[C@@H](CCCNC(=N)N)C(=O)O)ccc32)cc1 (stereo partly drawn) [Example 78, (((2-(4-acetylphenyl)-7,7-dimethyl-1,3-dioxo-2,3,5,12b-tetrahydro-1H,7H-chromeno[4,3-c][1,2,4]triazolo[1,2-a]pyridazin-10-yl)oxy)carbonyl)-L-arginine 2,2,2-trifluoroacetic acid] |  | 5.28
24 | CC(=O)c1ccc(-n2c(=O)n3n(c2=O)C2C(=CC3)C(C)(C)Oc3cc(OC(=O)N4CCN(C(=O)CN(C)C)CC4)ccc32)cc1 (stereo not shown) [Example 99, 2-(4-acetylphenyl)-7,7-dimethyl-1,3-dioxo-2,3,5,12b-tetrahydro-1H,7H-chromeno[4,3-c][1,2,4]triazolo[1,2-a]pyridazin-10-yl 4-(dimethylglycyl)piperazine-1-carboxylate hydrochloride] |  | 4.49
